Assay [1] deals with Aurora kinase B (Homo sapiens) (UniProt Q96GD4). Description: Inhibition of human Aurora B at 1.82 nM by HotSpot assay relative to control.
In assay [2] the target is CDK6/cyclin D1 (Homo sapiens) (UniProt P24385+Q00534). The experiment in a line: Inhibition of human CDK6/cyclin D1 at 1.82 nM by HotSpot assay relative to control. It is filed as protein-complex assay.
Assay [3] concerns the target Casein kinase I isoform epsilon (Homo sapiens) (UniProt P49674). The experiment in a line: Inhibition of human CK1epsilon at 1.82 nM by HotSpot assay relative to control.
The target of assay [4] is Tyrosine-protein kinase CSK (Homo sapiens) (UniProt P41240). The experiment in a line: Inhibition of human CSK at 1.82 nM by HotSpot assay relative to control.
Assay [5] has as its target Dual specificity tyrosine-phosphorylation-regulated kinase 1A (Homo sapiens) (UniProt Q13627). Description: Inhibition of human DYRK1 at 1.82 nM by HotSpot assay relative to control.
Assay [6] addresses Mitogen-activated protein kinase 3 (Homo sapiens) (UniProt P27361). Description: Inhibition of human ERK1 at 1.82 nM by HotSpot assay relative to control.
The target in assay [7] is Interleukin-1 receptor-associated kinase 1 (Homo sapiens) (UniProt P51617). Description: Inhibition of human IRAK1 at 1.82 nM by HotSpot assay relative to control.
Assay [8] has as its target Ribosomal protein S6 kinase alpha-5 (Homo sapiens) (UniProt O75582). Description: Inhibition of human RPS6KA5 at 1.82 nM by HotSpot assay relative to control.
Assay [9] addresses Serine/threonine-protein kinase PAK 4 (Homo sapiens) (UniProt O96013). The experiment in a line: Inhibition of human PAK4 at 1.82 nM by HotSpot assay relative to control.
The target in assay [10] is Protein kinase C beta type (Homo sapiens) (UniProt P05771). Description: Inhibition of human PKCb2 at 1.82 nM by HotSpot assay relative to control.
For assay [11], the target named is Protein kinase C delta type (Homo sapiens) (UniProt Q05655). Description: Inhibition of human PKCd at 1.82 nM by HotSpot assay relative to control.
Sequence of Protein kinase C delta type (Homo sapiens) (Q05655 whole entry, looked up): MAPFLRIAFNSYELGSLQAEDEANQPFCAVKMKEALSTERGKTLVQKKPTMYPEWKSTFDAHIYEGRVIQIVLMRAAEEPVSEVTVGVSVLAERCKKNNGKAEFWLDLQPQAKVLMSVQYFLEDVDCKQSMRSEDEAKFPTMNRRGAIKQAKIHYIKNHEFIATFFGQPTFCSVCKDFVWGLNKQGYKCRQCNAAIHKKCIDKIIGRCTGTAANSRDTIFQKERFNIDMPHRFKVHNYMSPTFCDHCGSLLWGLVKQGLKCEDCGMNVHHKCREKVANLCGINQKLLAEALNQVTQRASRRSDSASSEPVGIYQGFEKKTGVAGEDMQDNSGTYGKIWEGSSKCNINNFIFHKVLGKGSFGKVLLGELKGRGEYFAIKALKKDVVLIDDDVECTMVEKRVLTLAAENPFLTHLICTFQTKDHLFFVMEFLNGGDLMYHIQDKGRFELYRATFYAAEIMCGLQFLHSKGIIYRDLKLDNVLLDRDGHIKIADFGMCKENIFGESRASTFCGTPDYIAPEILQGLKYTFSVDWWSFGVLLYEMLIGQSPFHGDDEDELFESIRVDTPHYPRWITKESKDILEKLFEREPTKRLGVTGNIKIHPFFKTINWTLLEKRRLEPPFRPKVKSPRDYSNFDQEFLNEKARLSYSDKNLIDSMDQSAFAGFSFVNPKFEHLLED
Assay [12] deals with Ribosomal protein S6 kinase alpha-2 (Homo sapiens) (UniProt Q15349). Description: Inhibition of human RSK3 at 1.82 nM by HotSpot assay relative to control.
The target in assay [13] is Mitogen-activated protein kinase kinase kinase 20 (Homo sapiens) (UniProt Q9NYL2). Description: Inhibition of human MLTK at 1.82 nM by HotSpot assay relative to control.
Sequence of Mitogen-activated protein kinase kinase kinase 20 (Homo sapiens) (Q9NYL2 2-800 limits assumed): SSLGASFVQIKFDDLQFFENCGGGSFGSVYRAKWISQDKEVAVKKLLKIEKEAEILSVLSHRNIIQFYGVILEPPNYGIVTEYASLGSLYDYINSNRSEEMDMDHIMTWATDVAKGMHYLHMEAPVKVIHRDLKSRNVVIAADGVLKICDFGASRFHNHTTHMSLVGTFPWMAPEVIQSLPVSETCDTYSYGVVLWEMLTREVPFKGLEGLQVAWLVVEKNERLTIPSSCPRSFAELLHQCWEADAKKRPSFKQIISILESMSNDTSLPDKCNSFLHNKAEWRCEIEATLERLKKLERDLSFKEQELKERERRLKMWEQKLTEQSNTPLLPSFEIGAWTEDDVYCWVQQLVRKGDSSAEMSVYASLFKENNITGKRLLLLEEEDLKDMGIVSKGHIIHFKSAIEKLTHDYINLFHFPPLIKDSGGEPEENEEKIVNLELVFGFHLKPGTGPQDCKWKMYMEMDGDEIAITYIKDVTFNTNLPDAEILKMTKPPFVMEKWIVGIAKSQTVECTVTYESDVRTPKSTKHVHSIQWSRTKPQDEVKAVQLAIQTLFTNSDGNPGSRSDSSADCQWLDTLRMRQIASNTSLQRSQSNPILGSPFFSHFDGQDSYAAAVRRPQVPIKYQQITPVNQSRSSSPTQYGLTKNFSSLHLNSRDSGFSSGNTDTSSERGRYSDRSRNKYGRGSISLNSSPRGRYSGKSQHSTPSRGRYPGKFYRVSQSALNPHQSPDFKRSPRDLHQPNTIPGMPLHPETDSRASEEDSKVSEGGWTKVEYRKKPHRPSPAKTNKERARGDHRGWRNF
The target in assay [14] is Calcium/calmodulin-dependent protein kinase kinase 1 (Homo sapiens) (UniProt Q8N5S9). Description: Inhibition of human CAMKK1 at 18.6 nM by HotSpot assay relative to control.
For assay [15], the target named is Tyrosine-protein kinase Fer (Homo sapiens) (UniProt P16591). Description: Inhibition of human FER at 18.6 nM by HotSpot assay relative to control.
In assay [16] the target is Fibroblast growth factor receptor 3 (Homo sapiens) (UniProt P22607). The experiment in a line: Inhibition of human FGFR3 at 18.6 nM by HotSpot assay relative to control.
Sequence of Fibroblast growth factor receptor 3 (Homo sapiens) (P22607 23-806 limits assumed): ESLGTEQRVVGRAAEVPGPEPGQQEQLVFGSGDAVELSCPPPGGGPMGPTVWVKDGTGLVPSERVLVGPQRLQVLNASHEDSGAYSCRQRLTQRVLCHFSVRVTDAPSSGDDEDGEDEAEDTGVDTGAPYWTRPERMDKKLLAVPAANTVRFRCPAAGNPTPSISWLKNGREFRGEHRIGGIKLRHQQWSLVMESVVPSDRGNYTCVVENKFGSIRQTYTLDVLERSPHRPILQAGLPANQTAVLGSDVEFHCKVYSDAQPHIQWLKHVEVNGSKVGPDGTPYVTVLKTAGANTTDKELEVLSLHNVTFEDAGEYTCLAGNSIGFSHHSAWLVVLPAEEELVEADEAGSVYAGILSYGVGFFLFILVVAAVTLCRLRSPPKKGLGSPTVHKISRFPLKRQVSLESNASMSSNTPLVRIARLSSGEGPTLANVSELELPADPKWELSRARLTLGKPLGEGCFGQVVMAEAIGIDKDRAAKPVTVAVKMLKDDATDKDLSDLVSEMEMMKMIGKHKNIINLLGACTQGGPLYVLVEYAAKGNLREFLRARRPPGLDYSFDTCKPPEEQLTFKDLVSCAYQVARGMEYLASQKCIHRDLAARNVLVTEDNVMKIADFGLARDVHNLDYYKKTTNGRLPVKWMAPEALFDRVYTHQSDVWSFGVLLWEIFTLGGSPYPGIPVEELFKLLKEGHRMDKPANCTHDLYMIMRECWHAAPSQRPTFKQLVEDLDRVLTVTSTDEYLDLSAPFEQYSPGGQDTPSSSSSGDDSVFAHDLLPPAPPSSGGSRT
The target in assay [17] is Glycogen synthase kinase-3 alpha (Homo sapiens) (UniProt P49840). Description: Inhibition of human GSK3a at 18.6 nM by HotSpot assay relative to control.
In assay [18] the target is T1, Serine/threonine-protein kinase STK11 (Homo sapiens) (UniProt Q15831).
T1 sequence (whole entry): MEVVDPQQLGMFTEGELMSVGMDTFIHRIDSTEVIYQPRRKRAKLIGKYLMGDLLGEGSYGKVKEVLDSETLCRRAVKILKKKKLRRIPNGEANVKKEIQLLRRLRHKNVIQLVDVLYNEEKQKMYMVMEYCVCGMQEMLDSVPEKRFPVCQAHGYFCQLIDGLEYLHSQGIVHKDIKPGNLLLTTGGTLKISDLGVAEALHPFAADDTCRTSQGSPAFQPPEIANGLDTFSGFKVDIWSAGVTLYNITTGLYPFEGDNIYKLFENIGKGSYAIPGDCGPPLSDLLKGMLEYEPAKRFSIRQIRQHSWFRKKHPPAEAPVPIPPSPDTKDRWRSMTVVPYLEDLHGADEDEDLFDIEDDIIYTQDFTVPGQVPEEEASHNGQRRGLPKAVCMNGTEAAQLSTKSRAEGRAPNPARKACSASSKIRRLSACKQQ
The experiment in a line: Inhibition of human LKB1 at 18.6 nM by HotSpot assay relative to control.

Assay [19] has as its target Serine/threonine-protein kinase MARK1 (Homo sapiens) (UniProt Q9P0L2). Description: Inhibition of human MARK1 at 18.6 nM by HotSpot assay relative to control.
Assay [20] deals with SRSF protein kinase 3 (Homo sapiens) (UniProt Q9UPE1). The experiment in a line: Inhibition of human STK23 at 18.6 nM by HotSpot assay relative to control.
Assay [21] has as its target Serine/threonine-protein kinase N2 (Homo sapiens) (UniProt Q16513). Description: Inhibition of human PRK2 at 18.6 nM by HotSpot assay relative to control.
In assay [22] the target is Serine/threonine-protein kinase 33 (Homo sapiens) (UniProt Q9BYT3). Description: Inhibition of human STK33 at 18.6 nM by HotSpot assay relative to control.
Sequence of Serine/threonine-protein kinase 33 (Homo sapiens) (Q9BYT3 whole entry, looked up): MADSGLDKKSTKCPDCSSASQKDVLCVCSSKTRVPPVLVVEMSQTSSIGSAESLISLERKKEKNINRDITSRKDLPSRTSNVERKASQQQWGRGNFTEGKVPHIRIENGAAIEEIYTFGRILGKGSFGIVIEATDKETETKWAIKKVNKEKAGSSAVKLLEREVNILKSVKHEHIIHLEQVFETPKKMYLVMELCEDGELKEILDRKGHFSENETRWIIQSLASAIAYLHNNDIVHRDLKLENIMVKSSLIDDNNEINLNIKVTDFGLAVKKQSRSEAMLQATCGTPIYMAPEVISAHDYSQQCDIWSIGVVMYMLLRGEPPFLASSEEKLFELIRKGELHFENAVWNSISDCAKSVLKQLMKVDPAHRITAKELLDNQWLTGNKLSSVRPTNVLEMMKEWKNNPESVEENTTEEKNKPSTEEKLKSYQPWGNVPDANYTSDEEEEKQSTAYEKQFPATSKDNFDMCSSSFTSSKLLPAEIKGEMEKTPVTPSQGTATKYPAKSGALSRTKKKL
Assay [23] has as its target T2, Tyrosine-protein kinase Tec (Homo sapiens) (UniProt P42680).
T2 sequence (whole entry): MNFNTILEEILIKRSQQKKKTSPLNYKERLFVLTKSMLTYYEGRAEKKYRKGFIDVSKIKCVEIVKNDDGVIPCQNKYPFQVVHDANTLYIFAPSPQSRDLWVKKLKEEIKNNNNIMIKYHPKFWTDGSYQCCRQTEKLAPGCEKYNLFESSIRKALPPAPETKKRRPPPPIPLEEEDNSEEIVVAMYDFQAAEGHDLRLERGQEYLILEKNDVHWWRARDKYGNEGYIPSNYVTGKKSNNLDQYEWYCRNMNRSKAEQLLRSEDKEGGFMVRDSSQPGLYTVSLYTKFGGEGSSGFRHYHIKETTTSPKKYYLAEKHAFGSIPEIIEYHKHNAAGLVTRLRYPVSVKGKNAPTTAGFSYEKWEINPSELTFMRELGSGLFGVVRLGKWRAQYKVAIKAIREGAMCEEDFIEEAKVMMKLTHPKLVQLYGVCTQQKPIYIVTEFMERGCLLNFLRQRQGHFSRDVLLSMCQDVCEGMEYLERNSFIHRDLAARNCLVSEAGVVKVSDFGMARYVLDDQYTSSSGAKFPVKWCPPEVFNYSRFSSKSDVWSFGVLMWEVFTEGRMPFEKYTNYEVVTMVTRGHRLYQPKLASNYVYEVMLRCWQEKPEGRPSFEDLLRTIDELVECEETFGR
The experiment in a line: Inhibition of human TEC at 18.6 nM by HotSpot assay relative to control.

Molecules are shown by their SMILES.

Sequence of Serine/threonine-protein kinase PAK 4 (Homo sapiens) (O96013 whole entry, looked up): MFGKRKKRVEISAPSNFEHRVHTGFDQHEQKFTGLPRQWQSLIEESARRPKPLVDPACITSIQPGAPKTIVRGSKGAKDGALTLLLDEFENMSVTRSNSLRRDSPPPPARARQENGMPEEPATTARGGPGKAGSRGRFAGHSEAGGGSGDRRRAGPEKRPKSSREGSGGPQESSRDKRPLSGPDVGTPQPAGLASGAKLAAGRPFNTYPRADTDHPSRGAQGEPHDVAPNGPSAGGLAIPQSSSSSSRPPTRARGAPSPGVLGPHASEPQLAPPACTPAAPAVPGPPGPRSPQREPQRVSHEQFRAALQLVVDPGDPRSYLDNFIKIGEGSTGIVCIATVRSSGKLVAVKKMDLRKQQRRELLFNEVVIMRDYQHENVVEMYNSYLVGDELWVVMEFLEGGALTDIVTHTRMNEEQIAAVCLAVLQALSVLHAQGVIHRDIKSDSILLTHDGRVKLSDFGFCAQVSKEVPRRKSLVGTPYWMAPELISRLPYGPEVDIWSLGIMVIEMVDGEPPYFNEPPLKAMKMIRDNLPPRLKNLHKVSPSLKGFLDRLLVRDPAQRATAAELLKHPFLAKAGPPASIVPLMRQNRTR
Sequence of Serine/threonine-protein kinase MARK1 (Homo sapiens) (Q9P0L2 whole entry, looked up): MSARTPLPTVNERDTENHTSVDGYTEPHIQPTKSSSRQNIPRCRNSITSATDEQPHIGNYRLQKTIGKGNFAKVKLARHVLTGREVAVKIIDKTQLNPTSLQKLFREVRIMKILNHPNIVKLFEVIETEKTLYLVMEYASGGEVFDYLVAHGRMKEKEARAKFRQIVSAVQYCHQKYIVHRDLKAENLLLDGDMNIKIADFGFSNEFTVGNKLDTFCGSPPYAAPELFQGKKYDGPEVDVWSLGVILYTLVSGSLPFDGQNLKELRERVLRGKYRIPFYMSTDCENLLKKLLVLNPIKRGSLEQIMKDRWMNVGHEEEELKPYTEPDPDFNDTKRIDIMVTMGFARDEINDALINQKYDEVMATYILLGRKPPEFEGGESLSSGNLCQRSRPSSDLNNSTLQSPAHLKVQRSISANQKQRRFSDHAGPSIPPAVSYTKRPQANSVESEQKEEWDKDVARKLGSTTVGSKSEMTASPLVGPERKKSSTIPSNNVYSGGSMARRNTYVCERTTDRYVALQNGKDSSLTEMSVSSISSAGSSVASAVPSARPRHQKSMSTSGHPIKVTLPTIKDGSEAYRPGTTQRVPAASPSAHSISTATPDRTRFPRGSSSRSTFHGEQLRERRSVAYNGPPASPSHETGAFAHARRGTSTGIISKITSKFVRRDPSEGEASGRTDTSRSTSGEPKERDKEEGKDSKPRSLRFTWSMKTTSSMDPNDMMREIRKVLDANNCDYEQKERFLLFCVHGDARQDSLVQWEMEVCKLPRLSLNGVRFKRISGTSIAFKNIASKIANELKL
Sequence of Casein kinase I isoform epsilon (Homo sapiens) (P49674 whole entry, looked up, canonical isoform): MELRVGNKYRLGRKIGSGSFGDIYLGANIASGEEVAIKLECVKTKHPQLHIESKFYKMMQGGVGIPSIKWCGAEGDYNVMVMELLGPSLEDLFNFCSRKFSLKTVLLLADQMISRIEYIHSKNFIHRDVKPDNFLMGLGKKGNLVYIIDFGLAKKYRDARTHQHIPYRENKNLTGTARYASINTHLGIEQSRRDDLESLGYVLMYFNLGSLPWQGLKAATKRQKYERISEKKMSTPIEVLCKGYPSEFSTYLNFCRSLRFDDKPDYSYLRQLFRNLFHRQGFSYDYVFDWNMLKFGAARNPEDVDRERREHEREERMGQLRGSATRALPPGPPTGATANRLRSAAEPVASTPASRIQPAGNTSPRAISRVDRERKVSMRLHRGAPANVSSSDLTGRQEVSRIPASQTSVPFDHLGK
Sequence of Aurora kinase B (Homo sapiens) (Q96GD4 whole entry): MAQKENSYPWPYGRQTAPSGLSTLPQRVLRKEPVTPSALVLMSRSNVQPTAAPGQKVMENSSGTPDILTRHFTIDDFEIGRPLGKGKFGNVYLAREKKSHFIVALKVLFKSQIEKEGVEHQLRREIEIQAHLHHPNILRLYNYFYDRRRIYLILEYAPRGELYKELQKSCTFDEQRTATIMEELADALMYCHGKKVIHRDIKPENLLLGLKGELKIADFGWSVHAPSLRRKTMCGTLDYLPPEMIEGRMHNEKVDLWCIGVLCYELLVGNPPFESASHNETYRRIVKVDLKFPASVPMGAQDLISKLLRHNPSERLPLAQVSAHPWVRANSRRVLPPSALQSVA

On to `C[C@@]1(C(=O)Nc2ccc(F)nc2)CCCN1c1nc(Nc2cc(C3CC3)n[nH]2)c2cccn2n1`, for which the inhibition in [1] is -0.68%; in assay [2], -1.74%; in [3] it was 1.26%; in assay [4], 3.45%; in [5], -3.18%; in assay [6], -2.81%. Also, the inhibition in assay [7] was -7.77%; in assay [8], -3.72%; in assay [9], -3.15%; in assay [10], -3.58%; in assay [11] it was -1.35%; in [12], -2.19%. Moreover, in assay [13], the inhibition turned out to be 2.09%.

As for `C[C@]1(O)C[C@@H](c2nc(-c3ccc4ccc(-c5ccccc5)nc4c3)c3c(N)nccn32)C1`, the inhibition is 5.54% in assay [14]; -4.79% in [15]; 8.2% in assay [16]; -3.5% in assay [17]; 2.28% in assay [18]; -7.27% in assay [19]. Further, the inhibition is -2.07% in [20], 1.32% in assay [21], -0.08% in assay [22] and 2.21% in assay [23].

Usually inhibition stands for the drop in the measured response relative to a control, in per cent.

(Values after ChEMBL document CHEMBL5653615 (J Biol Chem, 2013).)
